Measured values taken from ChEMBL document CHEMBL1153356, “Inhibition of NF-kB and metalloproteinase-9 expression and secretion by parthenolide derivatives” (Bioorg Med Chem Lett, 2009).
The source made the active and inactive calls. The calls are words filed in the database; no cut-off is given here.

Legend:
[1] = test system: HEK293; experiment: Cytotoxicity against HEK293 cells at 20 uM by MTT assay; type: cell-based; conditions: human, hek293, 20 µM
[2] = test system: THP-1; experiment: Inhibition of MMP9 secretion in PMA-stimulated human THP1 cells at 20 uM; type: functional, cell-based
[3] = Inhibition of NF-kappaB-mediated transcriptional activity transfected in PMA-stimulated HEK293 cells after 24 hrs by luciferase reporter gene assay; type: cell-based; conditions: HEK293, 24 h
[4] = test system: THP-1; experiment: Cytotoxicity against human THP1 cells at 20 uM by MTT assay; type: functional, cell-based
[5] = test system: HEK293; experiment: Inhibition of MMP9 gene transcription in PMA-stimulated HEK293 cells after 24 hrs by luciferase reporter gene assay; type: functional, cell-based; conditions: Homo sapiens, HEK293, 24 h

| SMILES | IC50 [3] | Activity [1] | Activity [2] | Activity [4] | IC50 [5] |
| --- | --- | --- | --- | --- | --- |
| C=C1C(=O)O[C@H]2[C@H]1CC/C(C)=C\CC[C@@]1(C)O[C@@H]21 | 7.4 µM | Non-toxic | Active | Not toxic | 8.5 µM |
| C=C1C(=O)O[C@H]2[C@@H]3[C@@H](CC[C@@]3(C)O)C(=C)CC[C@@H]12 | 8.8 µM | Non-toxic | Active | Not toxic | 6.6 µM |
| C=C1C(=O)O[C@@H]2C3O[C@]3(C)CC/C=C(\C)CC[C@@H]12 (stereo partly drawn) | 9.76 µM | Non-toxic | Active | Not toxic | 6.6 µM |

The next compounds have a lower IC50 [3] than those just listed; values first:

| IC50 [3] | SMILES | Activity [1] | Activity [2] | Activity [4] | IC50 [5] |
| --- | --- | --- | --- | --- | --- |
| 2.8 µM | C=C1C(=O)O[C@@H]2[C@@H](O)[C@]3(C)CC[C@H]3[C@](C)(O)CC[C@@H]12 | Non-toxic |  | Not toxic | 3.8 µM |
| 6 µM | C=C1C(=O)O[C@H]2[C@@H]3[C@@H](CC[C@@]3(C)O)[C@](C)(OC)CC[C@@H]12 | Non-toxic | Active | Not toxic | 8.6 µM |
| 2.04 µM | C=C1C(=O)O[C@@H]2[C@@H](O)[C@]3(C)CC[C@H]3[C@](C)(OC)CC[C@@H]12 | Non-toxic |  | Not toxic | 3.2 µM |
